Assay results as given in patent US20250154169A1, “COMPOUNDS AND METHODS FOR MODULATING SPLICING” (REMIX THERAPEUTICS INC., priority 2021, published 2025).
Structures can show the parent of a compound that is named as a salt. Where two headings read alike, the source gives them in different places.

Tests used:
Format in all cases: cell-based, human
Target C mRNA = test: Splicing RT-qPCR gene panel, Target C canonical junction (CJ) mRNA; conditions: Homo sapiens, Tables 4A/4B, read-out: Target C (IC50, decrease in CJ mRNA, gene panel)
How it was run: (§1)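 A673 or K562 cells treated 24 h at 37° C. with an 11-point 3-fold dilution series (top 10 uM, ≤0.25% DMSO). Lysates analysed by one-step RT-qPCR for canonical exon-exon junction transcripts, normalized to GAPDH, GUSB or PPIA and DMSO control (2^(−ΔΔCt)), then converted to percentage response.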

HTT mRNA [1] = test: Splicing RT-qPCR assay, HTT canonical (CJ) and alternative (AJ) junction mRNA; conditions: Homo sapiens
How it was run: (§2)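 Canonical (CJ) and alternative-exon (AJ) junction mRNAs quantified by one-step RT-qPCR in cell lysates, normalized to housekeeping PPIA for A673 and GAPDH or GUSB for K562. Cells were exposed 24 h at 37 °C to 11-point 3-fold compound series from 10 uM final, with DMSO at or below 0.25%.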

MYB mRNA = test: Splicing RT-qPCR assay, MYB canonical (CJ) and alternative (AJ) junction mRNA; conditions: Homo sapiens
How it was run: as §2

HTT mRNA [2] = test: Splicing RT-qPCR gene panel, HTT canonical junction (CJ) mRNA; conditions: Homo sapiens, Tables 4A/4B, read-out: HTT (IC50, decrease in CJ mRNA, gene panel)
How it was run: as §1

SMN2 mRNA = test: Splicing RT-qPCR gene panel, SMN2 canonical junction (CJ) mRNA; conditions: Homo sapiens, Tables 4A/4B, read-out: SMN2 (IC50, decrease in CJ mRNA, gene panel)
How it was run: as §1

[3] = 24 h, A673 or K562 cells, 24 hours compound treatment, read-out: HTT CJ (IC50, decrease in canonical junction mRNA)
[4] = A673 or K562 cells, 24 hours compound treatment, read-out: HTT AJ (AC50, increase in alternative junction mRNA)
[5] = 24 h, A673 or K562 cells, 24 hours compound treatment, RT-qPCR, read-out: MYB AJ (AC50, increase in alternative junction mRNA)
[6] = 24 h, A673 or K562 cells, 24 hours compound treatment, RT-qPCR, read-out: MYB CJ (IC50, decrease in canonical junction mRNA)
[7] = Tables 4A/4B, canonical junction qPCR panel, read-out: MYB (IC50, decrease in CJ mRNA, gene panel)

Row | IC50 (Target C mRNA) | IC50 (HTT mRNA [1]; [3]) | IC50 (MYB mRNA; [6]) | IC50 (MYB mRNA; [7]) | IC50 (HTT mRNA [2]) | IC50 (SMN2 mRNA) | IC50 (HTT mRNA [1]; Table 3B, canonical junction mRNA, read-out: HTT CJ (IC50, decrease in CJ mRNA)) | IC50 (MYB mRNA; Table 3B, canonical junction mRNA, RT-qPCR, read-out: MYB CJ (IC50, decrease in CJ mRNA)) | SMILES | AC50 (HTT mRNA [1]; [4]) | AC50 (MYB mRNA; [5]) | AC50 (HTT mRNA [1]; Table 3B, alternative junction mRNA, read-out: HTT AJ (AC50, increase in AJ mRNA)) | AC50 (MYB mRNA; Table 3B, alternative junction mRNA, RT-qPCR, read-out: MYB AJ (AC50, increase in AJ mRNA))
1 | > 10 µM | > 10 µM | 1000 to 10000 nM | 1000 to 10000 nM | > 10 µM | 1000 to 10000 nM | – | – | Cc1cn2cc(NC(=O)c3ccc(N4CCNCC4)c4cn(CC(=O)N(C)C)nc34)cc(F)c2n1 [Compound 309, 2-[(dimethylcarbamoyl)methyl]-N-{8-fluoro-2-methylimidazo[1,2-a]pyridin-6-yl}-4-(piperazin-1-yl)indazole-7-carboxamide] | > 10 µM | > 10000 nM | – | –
2 | > 10 µM | > 10 µM | 100 to 1000 nM | 100 to 1000 nM | > 10 µM | 100 to 1000 nM | – | – | Cc1cn2cc(NC(=O)c3ccc(N4CCNCC4)c4c[nH]nc34)cc(Cl)c2n1 [Compound 286] | > 10 µM | 1000 to 10000 nM | – | –
3 | > 10 µM | > 10 µM | < 100 nM | 100 to 1000 nM | > 10 µM | < 100 nM | – | – | CN[C@H]1CCN(c2ccc(C(=O)Nc3cn4cc(C)nc4c(OC)n3)c3nn(CCOC)cc23)C1 [Compound 432, (S)—N-(8-methoxy-2-methylimidazo[1,2-a]pyrazin-6-yl)-2-(2-methoxyethyl)-4-(3-(methylamino)pyrrolidin-1-yl)-2H-indazole-7-carboxamide] | > 10 µM | < 100 nM | – | –
4 | 1 to 10 µM | 0.1 to 1 µM | < 100 nM | < 100 nM | < 0.1 µM | < 100 nM | – | – | CCNC1CCN(c2ccc(C(=O)Nc3cn4cc(C)nc4c(F)c3OC)c3nn(C)cc23)CC1 [Compound 459, 4-[4-(ethylamino)piperidin-1-yl]-N-{8-fluoro-7-methoxy-2-methylimidazo [1,2-a]pyridin-6-yl}-2-methylindazole-7-carboxamide] | 0.1 to 1 µM | < 100 nM | – | –
5 | > 10 µM | > 10 µM | 100 to 1000 nM | 100 to 1000 nM | > 10 µM | < 100 nM | – | – | Cc1cn2cc(NC(=O)c3ccc(N4CCNCC4)c4cn(C5CCOC5)nc34)cc(F)c2n1 (centres unmarked) [Compound 356, N-{8-fluoro-2-methylimidazo[1,2-a]pyridin-6-yl}-2-(oxolan-3-yl)-4-(piperazin-1-yl)indazole-7-carboxamide] | > 10 µM | 100 to 1000 nM | – | –
6 | > 10 µM | > 10 µM | 1000 to 10000 nM | 1000 to 10000 nM | > 10 µM | 100 to 1000 nM | – | – | Cc1cn2cc(NC(=O)c3ccc(N4CCNCC4)c4cn(CC(C)(C)O)nc34)cc(F)c2n1 [Compound 354, N-{8-fluoro-2-methylimidazo[1,2-a]pyridin-6-yl}-2-(2-hydroxy-2-methylpropyl)-4-(piperazin-1-yl)indazole-7-carboxamide] | > 10 µM | 1000 to 10000 nM | – | –
7 | 1 to 10 µM | 0.1 to 1 µM | < 100 nM | < 100 nM | 0.1 to 1 µM | < 100 nM | – | – | Cc1cn2cc(NC(=O)c3ccc(N4CC5(CNC5)C4)c4cn(C)nc34)cc(F)c2n1 [Compound 242] | 1 to 10 µM | 100 to 1000 nM | – | –
8 | 0.1 to 1 µM | – | – | < 100 nM | < 0.1 µM | < 100 nM | < 0.1 µM | < 100 nM | Cc1cn2cc(NC(=O)c3ccc(N4CC[C@@H](NC5CC5)C4)n4cc(C)nc34)cc(F)c2n1 [Compound 965] | – | – | < 0.1 µM | < 100 nM
9 | > 10 µM | > 10 µM | 1000 to 10000 nM | 1000 to 10000 nM | > 10 µM | 100 to 1000 nM | – | – | COc1c(NC(=O)c2ccc(N3CCNCC3)c3cn(C)nc23)cc2cn(C)nc2c1C [Compound 344, N-(6-methoxy-2,7-dimethylindazol-5-yl)-2-methyl-4-(piperazin-1-yl) indazole-7-carboxamide trifluoroacetate] | > 10 µM | 1000 to 10000 nM | – | –

Row | SMILES | IC50 (Target C mRNA) | IC50 (HTT mRNA [1]; [3]) | IC50 (MYB mRNA; [6]) | IC50 (MYB mRNA; [7]) | IC50 (HTT mRNA [2]) | IC50 (SMN2 mRNA) | IC50 (HTT mRNA [1]; Table 3B, canonical junction mRNA, read-out: HTT CJ (IC50, decrease in CJ mRNA)) | IC50 (MYB mRNA; Table 3B, canonical junction mRNA, RT-qPCR, read-out: MYB CJ (IC50, decrease in CJ mRNA)) | AC50 (HTT mRNA [1]; [4]) | AC50 (MYB mRNA; [5]) | AC50 (HTT mRNA [1]; Table 3B, alternative junction mRNA, read-out: HTT AJ (AC50, increase in AJ mRNA)) | AC50 (MYB mRNA; Table 3B, alternative junction mRNA, RT-qPCR, read-out: MYB AJ (AC50, increase in AJ mRNA))
10 | Cc1cc2c(N3CCNCC3)ccc(C(=O)Nc3cn[nH]c3)c2o1 [Compound 268] | > 10 µM | > 10 µM | > 10000 nM | > 10000 nM | > 10 µM | > 10000 nM | – | – | > 10 µM | > 10000 nM | – | –
